From US6825230B2, “Spiro and dispiro 1,2,4-trixolane antimalarials” (Medicines for Malaria Venture MMV, priority 2002, dated 2004)
≈ marks a conversion by molar mass, not a printed value. Where two headings read alike, the source gives them in different places.

How the values were obtained:
[1] = test system: Schistosoma mansoni adult worms (49-day-old); experiment: Effect on adult schistosomes (49-day-old) in infected mice; assay type: in vivo; conditions: for % reduction of adult worms growth at day 49 after per os application of 400 mg/kg, TWR (%) / Adult worms day 49, per os 400 mg/kg, DEAD WORM (%): single 400 mg/kg per os
Experimental: Mice were infected with 100 Schistosoma mansoni cercariae on day 49 post-treatment. Each group was treated per os with OZ compounds at single doses of 200, 400, and 600 mg/kg. Untreated mice served as the control. All groups were killed 4 weeks after treatment and the liver and intestine were removed and separated. The liver and intestine were compressed and alive male and female worms could be seen and counted.

[2] = test system: Schistosoma mansoni 21-day-old schistosomules; experiment: Effect on 21-day-old schistosomules in infected mice; assay type: in vivo; conditions: for % reduction of schistosomule growth at day 21 after per os application of 200 mg/kg, FWR (%): female worm reduction rate
Experimental: Mice were infected with 100 Schistosoma mansoni cercariae on day 21 post-treatment. Each group was treated per os with trioxolanes at a single dose of 200 mg/kg. […] All groups were killed 4 weeks after treatment and the liver and intestine were removed and separated. The liver and intestine were compressed and alive male and female worms could be seen and counted. The effect of the compounds was evaluated by mean total and female worm burden.

[3] = test system: chloroquine-sensitive NF54 strain of P. falciparum; experiment: In vitro antimalarial semiautomated microdilution assay ([3H]-hypoxanthine incorporation), NF54 strain; assay type: cell-based, Plasmodium falciparum; conditions: for IC50: Plasmodium falciparum
In short: (§1)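 Semiautomated microdilution against intraerythrocytic P. falciparum from asynchronous stock cultures, with growth tracked by [3H]-hypoxanthine incorporation. IC50 values were estimated by Logit regression analysis.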

[4] = test system: ANKA strain of P. berghei; experiment: Single dose STI in vivo screen in infected mice; parameters: species or system Plasmodium berghei; conditions: for Survival (days) 10 mg/kg po: single 10 mg/kg po in 3% ethanol and 7% Tween 80; for Survival (days) 10 mg/kg po / Survival (days) 10 mg/kg SSV po / Survival (days) 10 mg/kg sc: untreated 6-7 days; for Activity (%) 10 mg/kg po: single 10 mg/kg po in 3% ethanol and 7% Tween 80 on day 1 post-infection; for Activity (%) 10 mg/kg po / Activity (%) 10 mg/kg SSV po / Activity (%) 10 mg/kg sc: percent reduction in parasitemia on day 3; for Survival (days) 10 mg/kg SSV po: single 10 mg/kg po in SSV; for Activity (%) 10 mg/kg SSV po: single 10 mg/kg po in standard suspending vehicle (SSV) on day 1 post-infection; for Survival (days) 10 mg/kg sc: single 10 mg/kg sc in 3% ethanol and 7% Tween 80; for Activity (%) 10 mg/kg sc: single 10 mg/kg sc in 3% ethanol and 7% Tween 80 on day 1 post-infection
[5] = test system: chloroquine-resistant K1 strain of P. falciparum; experiment: In vitro antimalarial semiautomated microdilution assay ([3H]-hypoxanthine incorporation), K1 strain; assay type: cell-based, Plasmodium falciparum; conditions: for IC50: Plasmodium falciparum
In short: as §1

[6] = 49-day-old adults, total worm reduction rate
[7] = percentage of dead worm in the liver
[8] = single 200 mg/kg per os, 21-day-old schistosomules
[9] = single 200 mg/kg per os, 21-day-old schistosomules, total worm reduction rate
[10] = chloroquine-sensitive NF54 strain, 72 h incubation, read-out: IC50 (ng/ml) NF54
[11] = chloroquine-resistant K1 strain, 72 h incubation, read-out: IC50 (ng/ml) K1
[12] = NF54, 72 h, read-out: IC50 (ng/ml) NF54, chloroquine-sensitive NF54 strain, 72 h incubation
[13] = K1, 72 h, read-out: IC50 (ng/ml) K1, chloroquine-resistant K1 strain, 72 h incubation

Structure (SMILES)	% reduction of adult worms growth at day 49 after per os application of 400 mg/kg, TWR (%) [1, 6]	Adult worms day 49, per os 400 mg/kg, DEAD WORM (%) [1, 7]	% reduction of schistosomule growth at day 21 after per os application of 200 mg/kg, FWR (%) [2, 8] [%]	% reduction of schistosomule growth at day 21 after per os application of 200 mg/kg, TWR (%) [2, 9] [%]	Survival (days) 10 mg/kg po [4] [days]	Activity (%) 10 mg/kg po [4] [%]	Survival (days) 10 mg/kg SSV po [4] [days]	Activity (%) 10 mg/kg SSV po [4] [%]	Survival (days) 10 mg/kg sc [4] [days]	Activity (%) 10 mg/kg sc [4] [%]	other results
C1CCC2(CC1)OOC1(O2)C2CC3CC(C2)CC1C3 (centres unmarked) [OZ03]	29%	8%	74								% reduction of schistosomule growth at day 21 after per os application of 200 mg/kg, TWR (%) ([2]; po, 200 mg/kg, 504 h): 74%
C1C2CC3CC1CC(C2)C31OOC2(O1)C1CC3CC(C1)CC2C3 (centres unmarked) [OZ04]	0/0%	0/0%	7	7							
C1COC2(CCC3(CC2)OOC2(O3)C3CC4CC(C3)CC2C4)O1 (centres unmarked) [OZ10]	28%	13%	73	66							% reduction of adult worms growth at day 49 after per os application of 600 mg/kg, TWR (%) ([1]; single 600 mg/kg per os, 49-day-old adults, total worm reduction rate): 21%; Adult worms day 49, per os 600 mg/kg, DEAD WORM (%) ([1]; single 600 mg/kg per os, percentage of dead worm in the liver): 23%
O=C1CC2CC3(CC2C1)OOC1(O3)C2CC3CC(C2)CC1C3 (centres unmarked) [OZ12]	14%	0%	79	78							
O=C1C2C3CC4C5C3C1C5C1(OOC3(O1)C1CC5CC(C1)CC3C5)C42 (centres unmarked) [OZ14]	0/0%	0/0%	0	7							
CON=C1CCC2(CC1)OOC1(O2)C2CC3CC(C2)CC1C3 (centres unmarked) [OZ15]	0%	10%	70	63							
O=C1CCC2(CCO1)OOC1(O2)C2CC3CC(C2)CC1C3 (centres unmarked) [OZ17]	0%	5%	7								% reduction of schistosomule growth at day 21 after per os application of 200 mg/kg, TWR (%) ([2]; po, 200 mg/kg, 504 h): 23%
CC(C)(C)C1CCC2(CC1)OOC1(O2)C2CC3CC(C2)CC1C3 (centres unmarked) [OZ18]	0/0%	0/0%	9	12							
C1CCCCCC2(CCCCC1)OOC1(O2)C2CC3CC(C2)CC1C3 (centres unmarked) [OZ20]	0/0%	0/0%	0	0							
O=C1CCC2(CC1)OOC1(CCCCCCCCCCC1)O2 [OZ21]	0/0%	0/0%	0	0							
OC[C@H]1CC[C@]2(CC1)OOC1(O2)C2CC3CC(C2)CC1C3 (some centres unmarked) [OZ119]			87		7.7	99.29	8.0	99.15	8.3	99.66	IC50 [3, 10]: 0.2 ng/mL (≈ 0.679 nM); IC50 [5, 11]: 0.83 ng/mL (≈ 2.82 nM); % reduction of schistosomule growth at day 21 after per os application of 200 mg/kg, TWR (%) ([2]; po, 200 mg/kg, 504 h): 88%
c1cn(C[C@H]2CC[C@]3(CC2)OOC2(O3)C3CC4CC(C3)CC2C4)cn1 (some centres unmarked) [OZ145]			83								IC50 [3, 10]: 0.76 ng/mL (≈ 2.21 nM); Survival (days) 10 mg/kg po ([4]; 10 mg/kg): 8.3 days; Activity (%) 10 mg/kg po ([4]; 10 mg/kg): 99.82%; Survival (days) 10 mg/kg SSV po ([4]; 10 mg/kg): 10.7 days; Activity (%) 10 mg/kg SSV po ([4]; 10 mg/kg): 99.21%; Survival (days) 10 mg/kg sc ([4]; 10 mg/kg): 10.7 days; Activity (%) 10 mg/kg sc ([4]; 10 mg/kg): 99.87%; IC50 [5, 11]: 0.5 ng/mL (≈ 1.45 nM); % reduction of schistosomule growth at day 21 after per os application of 200 mg/kg, TWR (%) ([2]; po, 200 mg/kg, 504 h): 80%
O=[N+]([O-])c1ccc(N2CCC3(CC2)OOC2(O3)C3CC4CC(C3)CC2C4)cc1 (centres unmarked) [OZ151, Adamantane-2-spiro-3′-8′-(4′-nitrophenyl)-1′,2′,4′-trioxa-8′-azaspiro[4.5]decane]			19		7.3	71	7.3	71	11.0	99.63	IC50 [3, 10]: 4 ng/mL (≈ 10.4 nM); IC50 [5, 11]: 3.8 ng/mL (≈ 9.83 nM); % reduction of schistosomule growth at day 21 after per os application of 200 mg/kg, TWR (%) ([2]; po, 200 mg/kg, 504 h): 19%
OC12CC3CC(C1)C1(OOC4(CCC5(CC4)OCCO5)O1)C(C3)C2 (centres unmarked) [OZ152, 5-Hydroxyadamantane-2-spiro-3′-1′,2′,4′,9′,12′-pentaoxadispiro[4.2.4.2]tetradecane]			11	19	6.3						IC50 (ng/ml) NF54 ([3]; chloroquine-sensitive NF54 strain, 72 h incubation): 7.2 ng/mL (≈ 21.3 nM); Activity (%) 10 mg/kg po ([4]; 10 mg/kg): 0%; Survival (days) 10 mg/kg SSV po ([4]; 10 mg/kg): 6.7 days; Activity (%) 10 mg/kg SSV po ([4]; 10 mg/kg): 12%; Survival (days) 10 mg/kg sc ([4]; 10 mg/kg): 6.7 days; Activity (%) 10 mg/kg sc ([4]; 10 mg/kg): 22%; IC50 (ng/ml) K1 ([5]; chloroquine-resistant K1 strain, 72 h incubation): 3.2 ng/mL (≈ 9.46 nM)
CN1CCN(C(=O)N2CCC3(CC2)OOC2(O3)C3CC4CC(C3)CC2C4)CC1 (centres unmarked) [OZ157, Adamantane-2-spiro-3′-8′-[(4′-methyl-1′-piperazinyl)carbonyl]-1′,2′,4′-trioxa-8′-azaspiro[4.5]decane]			68	65	7.3	90	8.3	80	8.3	97	IC50 [3, 12]: 0.22 ng/mL (≈ 0.562 nM); IC50 [5, 13]: 0.2 ng/mL (≈ 0.511 nM)
C1CCN(C2CCC3(CC2)OOC2(O3)C3CC4CC(C3)CC2C4)CC1 (centres unmarked) [OZ159]			19	19	6.7	34	6.7	31	9.0	98	IC50 [3, 12]: 0.94 ng/mL (≈ 2.71 nM); IC50 [5, 13]: 0.7 ng/mL (≈ 2.01 nM)
c1ccc(CNC2CCC3(CC2)OOC2(O3)C3CC4CC(C3)CC2C4)cc1 (centres unmarked) [OZ160]			0	0	6.3	45	6.7	43	12.0	99.94	IC50 [3, 12]: 0.87 ng/mL (≈ 2.35 nM); IC50 [5, 13]: 0.7 ng/mL (≈ 1.89 nM)
C1C2CC3CC1CC(C2)C31OOC2(CCC3(CC2)OOC2(O3)C3CC4CC(C3)CC2C4)O1 (centres unmarked) [OZ169, Adamantane-2-spiro-3′-1′,2′,4′,9′,10′,12′-hexaoxadispiro[4.2.4.2]tetradecane-11′-spiro-2″-adamantane]			0	0	7.7	98	6.7	22	9.0	99.76	IC50 [3, 12]: > 10 ng/mL; IC50 [5, 13]: 15 ng/mL (≈ 33.7 nM)
